Consider six compounds from article PMC12693182, “Synthesis and QSAR Studies of Claramine Derivatives, a New Class of Broad-Spectrum Antimicrobial Agents” (Molecules, 2025).

As a reminder, the MIC is the smallest concentration in the dilution series that meets the test's criterion for growth inhibition. In general, IC50 refers to the concentration that inhibits the measured activity by half. Low values mean greater potency in that assay, high ones weaker potency in that assay.

The test system of one experiment is S. aureus ATCC 25923. Nature of the experiment: MIC, broth microdilution. The experiment is classed as cell-based, Staphylococcus aureus. The settings on record: Staphylococcus aureus, ATCC25923, 24 h, ATCC strain. On the procedure: (§1) Antimicrobial activity of the compounds was studied by determination of minimal inhibitory concentrations (MIC) according to the NCCLS guidelines M7-A2 using the microbroth dilution methods. The bacteria strains were grown on trypticase soy agar (Becton Dickinson) at 37 °C for 24 h. Inocula were prepared in TCE (tryptone 0.1%, […], wt/vol) by ajusting the turbidity at 623 nm to obtain 1–3 10^5 CFU/mL.
(§2) Antimicrobial activities of the compounds were determined by using a broth microdilution method performed in sterile 96-well microplates. All compounds were solubilized in water at a concentration of 10 mM and were transferred to each microplate well in order to obtain a two-fold serial dilution in 100 µL of broth and 100 µL of inoculum containing 2–6 10^5 CFU of each bacterium were added to each well. Some wells were reserved for positive controls and inoculum viability.
(In broth dilution the organism is exposed to a series of concentrations in liquid medium.)

A further experiment concerns S. aureus 340. Nature of the experiment: MIC, broth microdilution. The note with it: for MIC: Staphylococcus aureus, 340, 24 h. The experiment is classed as cell-based, Staphylococcus aureus. On the procedure: as §1, §2
Experiment [1] relates to Gram-positive and Gram-negative human and veterinary reference strains. Nature of the experiment: MIC against the panel of Gram-positive and Gram-negative reference strains. The experiment is classed as cell-based. The settings on record: Homo sapiens, 24 h, over several or all of the tested pathogens.
Description: Typically, cytotoxicity was expressed as the half maximal inhibitory concentration (IC50), defined as the concentration of a compound that decreases cell viability by 50% relative to untreated cells. This parameter provides a quantitative measure of a compound’s toxic potential toward mammalian cells. To facilitate data interpretation, we defined the Therapeutic Ratio (TR) as the ratio of IC50 (µg/mL) to MIC (µg/mL). This dimensionless parameter provides a straightforward measure of antibacterial selectivity, allowing direct comparison of cytotoxicity and antibacterial potency. A high TR value indicates compounds with strong antibacterial activity at concentrations far below their cytotoxic threshold, whereas a TR close to unity reflects poor selectivity and limited therapeutic potential. […] Within the Claramine A series, variations in IC50 strongly impacted TR values (Figure 5).
as §1, §2

The test system of a further experiment is P. aeruginosa ATCC 27853. The experiment can be described thus: MIC, broth microdilution. The note with it: ATCC strain; for MIC: Pseudomonas aeruginosa, ATCC27853, 24 h. The experiment is classed as cell-based, Pseudomonas aeruginosa. On the procedure: as §1, §2
Another experiment deals with P. aeruginosa 1051575. Nature of the experiment: MIC, broth microdilution. The experiment is classed as cell-based, Pseudomonas aeruginosa. The settings on record: 24 h; for MIC: Pseudomonas aeruginosa, 1051575, 24 h. On the procedure: as §1, §2
In the next experiment the test system is E. coli ATCC 25922. The experiment can be described thus: MIC, broth microdilution. The experiment is classed as cell-based, Escherichia coli. The note with it: ATCC strain; for MIC: Escherichia coli, ATCC25922, 24 h. How it is done: as §1, §2
For the next experiment, the system named is E. faecalis ATCC29212. The experiment can be described thus: MIC, broth microdilution. The experiment is classed as cell-based, Enterococccus faecalis. The settings on record: ATCC strain; for MIC: Enterococcus faecalis, ATCC29212, 24 h, read-out: MIC E. faecalis 29212. How it is done:
as §1, §2

In a further experiment the test system is S. intermedius 1051997. The experiment can be described thus: MIC, broth microdilution. The experiment is classed as cell-based, Staphylococcus intermedius. The note with it: Staphylococcus intermedius, 1051997, 24 h, 24 h. How it is done:
as §1, §2

The subject of experiment [2] is Chinese hamster Ovary cells (CHO-K1). The experiment can be described thus: Cytotoxicity assay (WST-1 / Neutral Red). The experiment is classed as cell-based. The note with it: 24-h incubation; for IC50: Cricetulus griseus, 24 h. On the procedure: The cytotoxic activities of compounds were assessed on Chinese hamster Ovary cells (CHO-K1) provided from ATCC-LGC Standards Sarl (Molsheim, France). Cells were maintained in Mc Coy’s 5A (CHO) medium supplemented with 10% bovine calf serum, 2 mM glutamine, and 100 U mL^−1/10 µg mL^−1 penicillin/streptomycin mixtures. For the cytotoxicity experiments, they were seeded in 96-well plates and incubated at 37 °C in humidified atmosphere containing 5% CO2 overnight, then concentrations of compounds were incorporated in triplicate cultures. After a 24-h incubation period at 37 °C, cells were submitted to three successive washes in phosphate buffer saline (PBS) and cell viability was evaluated by two different vital dyes: • i. A first set of cell cultures was incubated in PBS containing 10% WST-1 for 30 min at 37 °C, 5% CO2. Cell viability was evaluated by the assessment of WST-1 absorbance at 450 nm in a microplate spectrophotometer. • ii. A second set of cell cultures was placed into Neutral Red medium (50 μg mL^−1 Neutral Red in complete medium) and incubated for 3 h at 37 °C, 5% CO2. Then the Neutral Red medium was removed and the distaining solution (50% ethanol, 1% acetic acid, 49% distilled water; 50 µL per well) was added into the wells. The plates were shaken for 15–20 min at room temperature in the dark. Cell viability was evaluated by the assessment of absorbance at 540 nm in a microplate spectrophotometer.
Results were expressed as percentages of cell viability about the control (culture medium-only), which corresponded to 100% cell viability. Dose-response curves were calculated by non-linear regression analysis with TableCurve 2D software (V 5.0.1) (Systat Software Inc., San Jose, CA, USA). The Inhibitory Concentration 50% (IC50) was defined as the concentration of compounds that induced a 50% decrease of viable cells.
(Tetrazolium dyes change colour on reduction, which living cells bring about.)

Another experiment relates to E. coli 1956. The experiment can be described thus: MIC, broth microdilution. The experiment is classed as cell-based, Escherichia coli. The note with it: Escherichia coli, 1956, 24 h. On the procedure:
as §1, §2

SMILES strings stand for the structures. ≈ marks a conversion by molar mass, not a printed value.

Regarding `COC(=O)CCC(C)C1CCC2C3C(O)CC4CC(NCCCN5CCN(CCCN)CC5)CCC4(C)C3CC(O)C12C` (centres unmarked) [Claramine B07], the MIC against S. aureus ATCC 25923 was 4 µg/mL (≈ 6.61 µM); against S. aureus 340, 8 µg/mL (≈ 13.2 µM); in [1], 0.7 to 30 µg/mL (≈ 1.16 to 49.6 µM); with P. aeruginosa ATCC 27853, 30 µg/mL (≈ 49.6 µM); with P. aeruginosa 1051575 it was 15 µg/mL (≈ 24.8 µM); with E. coli ATCC 25922, 15 µg/mL (≈ 24.8 µM). The MIC with E. faecalis ATCC29212 was 8 µg/mL (≈ 13.2 µM); with S. intermedius 1051997, 4 µg/mL (≈ 6.61 µM). Also, the “IC50 CHO” value in experiment [2] turned out to be 80 µg/mL (≈ 132 µM). This compound also returned an IC50 in experiment [2] greater than 60 µg/mL.

`CC(C)OC(=O)CCC(C)C1CCC2C3C(O)CC4CC(NCCCNCCCCN)CCC4(C)C3CCC12C` (centres unmarked) [Claramine C18]: the MIC with S. aureus ATCC 25923 was found to be 7 µg/mL (≈ 12.5 µM); in the experiment with S. aureus 340, 7 µg/mL (≈ 12.5 µM); in the experiment with E. coli 1956, 14 µg/mL (≈ 24.9 µM); in the experiment on S. intermedius 1051997, 4 µg/mL (≈ 7.12 µM). For the same compound, in the experiment with P. aeruginosa ATCC 27853 (24 h), the “MIC P. aeruginosa 27853” value turned out to be 14 µg/mL (≈ 24.9 µM). For the same compound, the “MIC P. aeruginosa 1051575” value with P. aeruginosa 1051575 is given as 14 µg/mL (≈ 24.9 µM). The “MIC E. coli 25922” value with E. coli ATCC 25922 (24 h) is recorded as 14 µg/mL (≈ 24.9 µM). Also, the “MIC E. faecalis 29212” value in the experiment with E. faecalis ATCC29212 (24 h) is given as 7 µg/mL (≈ 12.5 µM). Moreover, the IC50 in experiment [2] is 95 µg/mL (≈ 169 µM).

Take `CC(C)OC(=O)CCC(C)C1CCC2C3CCC4CC(NCCCNCCCCN)CCC4(C)C3CCC12C` (centres unmarked) [Claramine E03]: the MIC worked out at 3 µg/mL (≈ 5.5 µM) against S. aureus ATCC 25923; 7 µg/mL (≈ 12.8 µM) in the experiment on S. aureus 340; 27 µg/mL (≈ 49.5 µM) against P. aeruginosa ATCC 27853; 7 µg/mL (≈ 12.8 µM) against P. aeruginosa 1051575; 14 µg/mL (≈ 25.6 µM) against E. coli 1956; 100 µg/mL (≈ 183 µM) in the experiment on E. coli ATCC 25922. For the same compound, the MIC turned out to be 7 µg/mL (≈ 12.8 µM) in the experiment with E. faecalis ATCC29212 and 2 µg/mL (≈ 3.66 µM) against S. intermedius 1051997. This compound also came in with an IC50 in [2] of 56 µg/mL (≈ 103 µM).

As for `CC(C)OC(=O)CCC(C)C1CCC2C3CCC4CC(NCCCN5CCN(CCCN)CC5)CCC4(C)C3CCC12C` (centres unmarked) [Claramine E05], the MIC came out at 15 µg/mL (≈ 25 µM) in the experiment with S. aureus ATCC 25923; 8 µg/mL (≈ 13.3 µM) in the experiment with S. aureus 340; 60 µg/mL (≈ 99.8 µM) against P. aeruginosa ATCC 27853; 8 µg/mL (≈ 13.3 µM) with P. aeruginosa 1051575; 15 µg/mL (≈ 25 µM) in the experiment with E. coli 1956; 15 µg/mL (≈ 25 µM) with E. coli ATCC 25922. Also, the minimal inhibitory concentration (MIC) came to 30 µg/mL (≈ 49.9 µM) in the experiment with E. faecalis ATCC29212 and 15 µg/mL (≈ 25 µM) in the experiment on S. intermedius 1051997. In experiment [2], the “IC50 CHO” value was determined as 50 µg/mL (≈ 83.2 µM). In experiment [2], the IC50 was 46 µg/mL (≈ 76.5 µM).

Regarding `CC(C)OC(=O)CCC(C)C1CCC2C3C(O)CC4CC(NCCN(CCN)CCN)CCC4(C)C3CCC12C` (centres unmarked) [Claramine D10], the MIC stood at 28 µg/mL (≈ 49.7 µM) in the experiment with S. aureus ATCC 25923; 110 µg/mL (≈ 195 µM) against P. aeruginosa ATCC 27853; 56 µg/mL (≈ 99.5 µM) against E. coli 1956; 110 µg/mL (≈ 195 µM) with E. coli ATCC 25922; 56 µg/mL (≈ 99.5 µM) in the experiment with E. faecalis ATCC29212; 7 µg/mL (≈ 12.4 µM) against S. intermedius 1051997. In addition, the “MIC S. aureus 340” value against S. aureus 340 (24 h) worked out at 28 µg/mL (≈ 49.7 µM). Further, the “MIC P. aeruginosa 1051575” value in the experiment on P. aeruginosa 1051575 is recorded as 14 µg/mL (≈ 24.9 µM). Further, the “IC50 CHO” value in experiment [2] came to 80 µg/mL (≈ 142 µM).

Take `CCOC(=O)CCC(C)C1CCC2C3C(O)CC4CC(NCCCNCCCCNCCCN)CCC4(C)C3CCC12C` (centres unmarked) [Claramine C21]: the MIC came to 4 µg/mL (≈ 6.61 µM) with S. aureus ATCC 25923; 4 µg/mL (≈ 6.61 µM) against S. aureus 340; 15 µg/mL (≈ 24.8 µM) against P. aeruginosa ATCC 27853; 15 µg/mL (≈ 24.8 µM) in the experiment with P. aeruginosa 1051575; 30 µg/mL (≈ 49.6 µM) with E. coli 1956; 15 µg/mL (≈ 24.8 µM) against E. coli ATCC 25922. Besides, the MIC in the experiment on E. faecalis ATCC29212 amounted to 2 µg/mL (≈ 3.31 µM); against S. intermedius 1051997, 4 µg/mL (≈ 6.61 µM). This compound also displayed an IC50 in experiment [2] of 45 µg/mL (≈ 74.4 µM).
